Data set [1] can be described thus: Stability and uniformity of compound A suspension in 0.5% methyl cellulose. The format is physicochemical. As to conditions: 1 mg/mL suspension in 0.5% MC; 7 days under refrigeration, protected from light, and a further 24 hours at ambient temperature exposed to indoor lighting. How it is done: Compound A was weighed out and suspended in a 0.5 w/v % methyl cellulose 400 cP solution (Wako Pure Chemical Industries, Ltd., hereinafter referred to as “0.5% MC”), using a mortar and pestle, to obtain a 1 mg/mL suspension. The suspension was used within 7 days of preparation.
(§1) Compound A was weighed out and suspended in a 0.5 w/v % methyl cellulose 400 cP solution (Wako Pure Chemical Industries, Ltd., hereinafter referred to as “0.5% MC”), using a mortar and pestle, to obtain a 1 mg/mL (10 mg/kg) suspension. The suspension was used within 7 days of preparation.

For data set [2], the system named is TMD8 (ABC-DLBCL) cells. Put plainly: Antitumor activity study of compound A in combination with GA101/RTX in TMD8 xenograft model (Example 2). The format is in vivo, SCID mice. As to conditions: for Tumor growth inhibition (TGI): vs vehicle group, GA101 3 mg/kg i.v. Q7Dx4, RTX 3 mg/kg i.v. Q7Dx4, compound A 10 mg/kg p.o. twice daily. The method, then:
Mice were xenografted on DO. […] Mice received one IV injection of Rituximab (at 3 mg/kg) or one IV injection of GA101 (at 3 mg/kg) once a week (D14 (Day 0), 21 (Day 7), 28 (Day 14) and 35 (Day 21): Q7D×4). Tumor volumes were monitored and recorded twice a week.
Compound A was per os (PO) administered to mice twice daily by oral gavage via a disposable oral feeding needle (Fuchigami Kikai Co.) at 10 ml/kg. GA101/Rituximab were intravenously (IV) injected at 10 ml/kg in the caudal vein of mice. For all treatments, the administration volumes were adapted according to the closest measure of individual body weight for each mouse. The compound A b.i.d. group and the vehicle group received compound A and 0.5% MC, respectively, in the morning and afternoon at an interval of 8 h or more.
(§2) Female C.B-17/lcr-SCID/SCIDJcl mice (Clea Japan Inc., age at initiation of experiment: 6 weeks; hereinafter referred to as “Scid mice”) were used. The mice were kept in metal mouse cages, 3 to 5 to a cage, and underwent about 1 week acclimation period prior to being subjected to the experiment. While at our facility, the animals were allowed solid feed, CRF-1 (Oriental Yeast Co., Ltd.) and tap water (from an automatic dispenser) ad libitum. Excrement was processed with an automated cleaning system. The general condition of the animals was observed upon receipt and at the completion of acclimation. Animals having no problems with general condition were used in the experiment.
(§3) TMD8 was established from cells of a patient with diffuse large B-cell lymphoma (Tohda S et al., Leuk Res., 2006, 30: 1385-90). RPMI Medium 1640 (Invitrogen Corporation, hereinafter referred to as “RPMI”) containing 10 vol % inactivated FBS and 1 vol % Penicillin-Streptomycin liquid (Invitrogen Corporation) was prepared and used as medium. The medium was stored at 5° C. (allowable range: 1° C. to 9° C.). The cell suspension of 4×106 to 2.0×10^7 cells per dish was inoculated in a 150 mm dish containing the medium. The plates were incubated at 37° C., 5% CO2, 95% air.
(§4) At Day 0, the pellet was suspended in RPMI previously cooled on ice to obtain a 2×10^8 cells/mL cell suspension. The RPMI cell suspension and equal volume of BD Matrigel GFR (BD Biosciences) were combined to prepare a 1×10^8 cells/mL cell suspension. This was used as the cell suspension for implantation. Then, 0.1 mL of cell suspension was subcutaneously injected in the right flank of the mice under pentobarbital anesthesia, using a 25-gauge needle (Terumo Corporation).
(§5) The long axis and short axis of the tumors were measured with electronic calipers (Mitutoyo Corporation) every 2 or 4 days from TMD8 implantation to the final assessment day.
(§6) The primary endpoint was tumor volume on the final assessment day. In addition, the tumor growth inhibition rate (TGI, %) in the treatment groups versus the vehicle group was calculated. Temporal change in tumor volume and body weight from Day 0 were used as secondary endpoints. Tumor volume was calculated with the following formula. Tumor volume=Long axis of tumor×(short axis of tumor)2×0.5
The experiment in Example 2 was performed according to the method described in Example 1 except for the following “substance vehicle” and “treatment schedule”.
as §1
The stock solutions of both GA101 (25 mg/mL) and Rituximab (10 mg/mL) were kept at 4° C. Before administration to mice, the stock solutions were diluted in NaCl 0.9% at 0.3 mg/mL (3 mg/kg) for this study.
When the mean tumor volume reached 400 to 450 mm^3 mice were randomized in groups of 6 according to their individual tumor volumes and treatment was initiated.

Data set [3] has as its system TMD8 (ABC-DLBCL) cells. Briefly: Antitumor activity study of compound A or compound B (in diet) in combination with RTX in TMD8 xenograft model (Example 3). The format is in vivo, SCID mice. The note with it: for Tumor growth inhibition (TGI): vs vehicle group, RTX 3 mg/kg i.v. Q7Dx3, compound A 0.0037% in diet (6 mg/kg/day), compound B 0.012% in diet (20 mg/kg/day). How it is done:
Mice were xenografted on DO. […] Mice received one IV injection of Rituximab (at 3 mg/kg) once a week (D14 (Day 0), 21 (Day 7) and 28 (Day 14): Q7D×3). Tumor volumes were monitored and recorded at Day 3, Day 7, Day 11, Day 14, Day 18 and Day 21.
as §2, §3, §4, §5, §6
The experiment in Example 3 was performed according to the method described in Example 1 except for the following “substance vehicle”, “route of drug administration” and “treatment schedule”
The comparative substance, ibrutinib (hereinafter referred to as “compound B”), was stored in sealed containers at ambient temperature, protected from light.
The dose of compound A or compound B corresponds to a daily intake of 6 or 20 mg/kg of body weight.
Treatment groups: Mice fed the same diet containing compound A or compound B after randomization. Rituximab was administered intravenously at a 3 mg/kg once weekly.
Tumor diameter was measured and tumor volume was calculated every 3 or 4 days after group assignment.

Data set [4] concerns TMD8 (ABC-DLBCL) cells. Put plainly: Antitumor efficacy study of compound A in combination with GA101 in SCID mice subcutaneously xenografted with TMD8 cells (Example 1). The data set is classed as in vivo. The note with it: GA101 1 and 3 mg/kg i.v. Q7Dx4. The method, then: Mice were xenografted on DO. Mice received one PO administration of vehicle and compound A at 10 mg/kg twice every day (Q0.5D×24) alone or in combination with one IV injection of GA101 at 1 and 3 mg/kg once a week (Q7D×4). Mice received one IV injection of Rituximab (at 3 mg/kg) or one IV injection of GA101 (at 1 and 3 mg/kg) once a week (D14 (Day 0), 21 (Day 7), 28 (Day 14) and D35 (Day 21): Q7D×4). Tumor volumes were monitored and recorded twice a week.
Antitumor efficacy study of BTK inhibitor in combination with anti-CD20 Abs in SCID mice subcutaneously xenografted with TMD8 (ABC-DLBCL) cells
The test substance, 6-amino-9-[(3R)-1-(2-butynoyl)-3-pyrrolidinyl]-7-(4-phenoxyphenyl)-7,9-dihydro-8H-purin-8-one hydrochloride (hereinafter referred to as “compound A”), was stored in sealed containers at ambient temperature, protected from light.
Compound A was weighed out and suspended in a 0.5 w/v % methyl cellulose 400 cP solution (Wako Pure Chemical Industries, Ltd., hereinafter referred to as “0.5% MC”), using a mortar and pestle, to obtain a 1 mg/mL suspension. The suspension was used within 7 days of preparation. […]
TMD8 was established from cells of a patient with diffuse large B-cell lymphoma (Tohda S et al., Leuk Res., 2006, 30: 1385-90). […] Cells were counted in a hemocytometer and their viability was at least 90% the day of cells injection. […]

Structures can show the parent of a compound that is named as a salt.

With `CC#CC(=O)N1CC[C@@H](n2c(=O)n(-c3ccc(Oc4ccccc4)cc3)c3c(N)ncnc32)C1` [compound A, 6-amino-9-[(3R)-1-(2-butynoyl)-3-pyrrolidinyl]-7-(4-phenoxyphenyl)-7,9-dihydro-8H-purin-8-one hydrochloride], in data set [1], the “Stability and uniformity of suspension” value was “stable and uniform”. Also, the “Tumor growth inhibition (TGI)” value was found to be 0.0% in the data set on TMD8 (ABC-DLBCL) cells [2] (day 0); 13.7% in the data set on TMD8 (ABC-DLBCL) cells [2] (day 4); 17.6% in the data set on TMD8 (ABC-DLBCL) cells [2] (day 7); 34.0% with TMD8 (ABC-DLBCL) cells [2] (day 11); 45.8% in the data set with TMD8 (ABC-DLBCL) cells [2] (day 14); 46.4% in the data set on TMD8 (ABC-DLBCL) cells [2] (day 18). For the same compound, the “Tumor growth inhibition (TGI)” value was 62.6% in the data set on TMD8 (ABC-DLBCL) cells [2] (day 21); 0.0% with TMD8 (ABC-DLBCL) cells [3] (day 0); 12.7% in the data set on TMD8 (ABC-DLBCL) cells [3] (day 3); 42.8% in the data set with TMD8 (ABC-DLBCL) cells [3] (day 7); 47.55% in the data set on TMD8 (ABC-DLBCL) cells [3] (day 11); 51.1% with TMD8 (ABC-DLBCL) cells [3] (day 14). Further, the “Tumor growth inhibition (TGI)” value with TMD8 (ABC-DLBCL) cells [3] (day 18) is on record as 61.0%; in the data set on TMD8 (ABC-DLBCL) cells [3] (day 21) it was 56.1%. Also, in the data set on TMD8 (ABC-DLBCL) cells [2] (monotherapy, GA101 or RTX 3 mg/kg i.v., compound A 10 mg/kg p.o.), the “Statistical significance observed after Day” value was greater than 11 days. Besides, in the data set on TMD8 (ABC-DLBCL) cells [3] (compound A 0.0037% vs compound B 0.012% in diet, alone or with RTX 3 mg/kg), the “Antitumor activity compared with the compound B arm” value was “comparable to compound B (0.012%)”.
As to “GA101: obinutuzumab, afucosylated glyco-engineered humanized B-Ly1 type II anti-CD20 antibody”, the “Tumor growth inhibition (TGI)” value in the data set on TMD8 (ABC-DLBCL) cells [2] (day 0) came to 1.7%; in the data set with TMD8 (ABC-DLBCL) cells [2] (day 4), 30.9%; with TMD8 (ABC-DLBCL) cells [2] (day 7), 45.0%; in the data set on TMD8 (ABC-DLBCL) cells [2] (day 11), 53.3%; in the data set with TMD8 (ABC-DLBCL) cells [2] (day 14) it was 63.3%; with TMD8 (ABC-DLBCL) cells [2] (day 18), 72.2%. The “Tumor growth inhibition (TGI)” value in the data set with TMD8 (ABC-DLBCL) cells [2] (day 21) was 77.9%. Moreover, the “Antitumoral effect (tumour volume curves, FIGS. 1A-1B)” value in the data set on TMD8 (ABC-DLBCL) cells [4] is on record as “showed an antitumoral effect”.
